{
  "source": "patent US7033829B2",
  "about": "“Method to inhibit cell growth using oligonucleotides” (Trustees of Boston University, priority 2000, dated 2006)",
  "key": {"[1]": {"test_system": "normal (control) fibroblasts", "test": "FACS analysis of normal (control) fibroblasts", "type": "cell-based, human", "conditions": "40 μM", "description": "Fibroblasts were obtained from an NBS (Nijmegen breakage syndrome) patient, in which p95/Nbs1 was below the level of detection. Preconfluent cultures or normal (control) fibroblasts and NBS fibroblasts were treated with 40 μM of the oligonucleotides and collected after 48 hours for FACS analysis (FIGS. 34A–34H). The averages and standard deviations were calculated from triplicate cultures of each condition. FACS profiles from one representative experiment of three are shown."}, "telomere length": {"test_system": "telomere length", "test": "Mean telomere length in fibroblasts", "type": "cell-based, human", "conditions": "for MTL values: 40 μM, 5 days (diluent 10.59)", "description": "Cells were plated at a density of 180,000 cells/ml in RPMI 1640 medium supplemented with 3% FBS. Cells were treated with 40 μM of either of the oligonucleotides for 72 hours. Cells were then collected, washed and fixed for 30 minutes in 4% paraformaldehyde and then permeabilized with 0.1% Triton X-100 for 2 minutes. The TUNEL assay was carried out with components and instructions of the In Situ Cell Death Detection Kit using fluorescein-labeled dUTP from Boehringer Mannheim. TUNEL-positive cells were detected by FACS analysis and confocal microscopy. Cellular Uptake of Oligonucleotides For confocal analysis, Jurkat cells were plated on Permanox chamber slides (Lab-Tek, Naperville, Ill.) and treated for 4 hours with fluorescein phosphoramidite (FAM)-labeled oligonucleotides (Research Genetics, Inc., Huntsville, Ala.). Adherent cells were fixed in 4% paraformaldehyde in PBS, stained with propidium iodide (PI) to identify nuclei, mounted with Slowfade reagent (Molecular Probes, Eugene, Oreg.), covered with a coverslip and stored at 4° C. in the dark. Uptake of the oligonucleotides was assessed in 5–10 μm sections with a Carl Zeiss LSM 510 confocal laser microscope. Computer images assign green to the FAM-oligonucleotides, red to PI, and yellow to co-localization of the signals. FACS analysis was performed on Jurkat cells identically treated with the FAM-oligonucleotides for 4 hours, then fixed in 0.5 ml of 4% paraformaldehyde overnight at 4° C. Fluorescence was measured on the FL-1 channel. Western Blot Analysis and Antibodies Western blot analysis was performed as previously described [Eller, M. S., et al., (1996), Proc Natl Acad Sci USA 93, 1087–1092]. Antibody Ab-6 (DO-1 clone, Oncogene Research Products, Cambridge, Mass.) detected p53; antibody KH95 (Santa Cruz Biotechnology, Inc., Santa Cruz, Calif.) detected E2F1; antibody Ab-4 (Oncogene Research products) detected p73. Phospho-p53 (serine 15) was detected using the #9284 polyclonal antibody and phospho-p95/Nbs1 (serine 343) was detected by a phospho-p95/Nbs1-specific polyclonal antibody, both antibodies from Cell Signaling Technology (Beverly, Mass.). p95/Nbs1 antibody (#NB-100-143, Novus Biologicals, Littleton, Colo.) and an actin antibody (I-19, Santa Cruz Biotechnology, Santa Cruz, Calif.) were also used. […] After the indicated times, total protein was collected and analyzed by 8% PAGE and western blot using a polyclonal antibody to p95/Nbs1 (#NB-100-143, Novus Biologicals, Littleton, Colo.). […] Telomere length was determined essentially as described by van Steensel and de Lange (van Steensel, B. and T. de Lange. 1997, Nature 385: 740–743) using the Telo TAGGG Telomere Length Assay from Roche Molecular Biochemicals (Indianapolis, Ind.) and the protocol supplied by the manufacturer. […]"}},
  "note": "Oligonucleotides are written 5' to 3', each unit as a sugar letter and its base; * is a phosphorothioate linkage, no mark a phosphodiester; rarer units and linkages stand in square brackets, end groups in braces. Plain capitals give the bases only. d = 2'-deoxy (DNA); {P} = phosphate",
  "data": [
    {"substance": "pGTTAGGGTTAG (DNA {P}-dGdTdTdAdGdGdGdTdTdAdG) [SEQ ID NO: 5]", "values": [
      {"measurement": "S phase growth arrest", "setting": "[1]", "result": "exhibit an S phase growth arrest within 24 hours"},
      {"measurement": "MTL values", "setting": "telomere length", "result": 12.25, "unit": "kilobases"},
      {"measurement": "increase in MTL", "setting": "telomere length; 5-day experiment", "result": "approximately 20%"}
    ]},
    {"substance": "pCTAACCCTAAC (DNA, 5' {P}, backbone not given here) [SEQ ID NO: 9, reference compound]", "values": [
      {"measurement": "S phase growth arrest", "setting": "[1]", "result": "unaffected"},
      {"measurement": "MTL values", "setting": "telomere length", "result": 10.45, "unit": "kilobases"}
    ]},
    {"substance": "pGATCGATCGAT (DNA {P}-dGdAdTdCdGdAdTdCdGdAdT) [SEQ ID NO: 10, reference compound]", "values": [
      {"measurement": "S phase growth arrest", "setting": "[1]", "result": "unaffected"},
      {"measurement": "MTL values", "setting": "telomere length", "result": 10.22, "unit": "kilobases"}
    ]}
  ]
}
